Laboratory results taken from PubChem BioAssay AID1963875 (Molecular Pharmacology Branch, DTP, NCI, 2024).

System: KRAS-mutant PDC complex spheroid viability
Experiment: Anticancer human tumor 186277-243-T-J2-PDC patient-derived colon adenocarcinoma cell line growth inhibition [KRAS2]
Details: for IC50: curve of first compound; for viability, T/C: stronger effect = lower value
In short: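 KRAS-mutant tumor cells were grown as spheroids with HUVEC endothelial cells and human MSCs as stroma. Targeted agents were tested alone and with KRAS pathway inhibitors. Doses started at or near clinical Cmax, or 10 microM, descending half-log.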

[1] = second compound 0.0316 µM, first compound 0.0316 µM
[2] = second compound 0.0316 µM, first compound 0.1 µM
[3] = second compound 0.0316 µM, first compound 0.316 µM
[4] = second compound 0.0316 µM, first compound 1 µM
[5] = second compound 0.0316 µM, first compound 3.16 µM
[6] = second compound 0.0316 µM, first compound 10 µM
[7] = second compound 0.1 µM, first compound 0.0316 µM
[8] = second compound 0.1 µM, first compound 0.1 µM
[9] = second compound 0.1 µM, first compound 0.316 µM
[10] = second compound 0.1 µM, first compound 1 µM
[11] = second compound 0.1 µM, first compound 3.16 µM
[12] = second compound 0.1 µM, first compound 10 µM
[13] = second compound 0.316 µM, first compound 0.0316 µM
[14] = second compound 0.316 µM, first compound 0.1 µM
[15] = second compound 0.316 µM, first compound 0.316 µM
[16] = second compound 0.316 µM, first compound 1 µM
[17] = second compound 0.316 µM, first compound 3.16 µM
[18] = second compound 0.316 µM, first compound 10 µM
[19] = second compound 1 µM, first compound 0.0316 µM
[20] = second compound 1 µM, first compound 0.1 µM
[21] = second compound 1 µM, first compound 0.316 µM
[22] = second compound 1 µM, first compound 1 µM
[23] = second compound 1 µM, first compound 3.16 µM
[24] = second compound 1 µM, first compound 10 µM
[25] = second compound 3.16 µM, first compound 0.0316 µM
[26] = second compound 3.16 µM, first compound 0.1 µM
[27] = second compound 3.16 µM, first compound 0.316 µM
[28] = second compound 3.16 µM, first compound 1 µM
[29] = second compound 3.16 µM, first compound 3.16 µM
[30] = second compound 3.16 µM, first compound 10 µM
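Wherever viability, T/C is given: viability read after seven days of compound exposure; 100% = DMSO vehicle-treated spheroids so lower means less viable.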

Compound	IC50 (second compound 0.0316 µM)	IC50 (second compound 0.1 µM)	IC50 (second compound 0.316 µM)	IC50 (second compound 1 µM)	IC50 (second compound 3.16 µM)	viability, T/C [1]	viability, T/C [2]	viability, T/C [3]	viability, T/C [4]	viability, T/C [5]	viability, T/C [6]	viability, T/C [7]	viability, T/C [8]	viability, T/C [9]	viability, T/C [10]	viability, T/C [11]	viability, T/C [12]	viability, T/C [13]	viability, T/C [14]	viability, T/C [15]	other results
COC(=O)c1ccc2c(C(=Nc3ccc(N(C)C(=O)CN4CCN(C)CC4)cc3)c3ccccc3)c(O)[nH]c2c1 + C=CC(=O)N1CCN(c2nc(OCC3CCCN3C)nc3c2CCN(c2cccc4cccc(C)c24)C3)CC1CC#N	1890 nM	732 nM	949 nM	446 nM	< 31.6 nM	103%	104%	113%	85.3%	21.7%	13.4%	91.5%	92.3%	103%	33%	12.6%	7.16%	97.8%	109%	102%	viability, T/C [16]: 47.5%; viability, T/C [17]: 7.39%; viability, T/C [18]: 5.61%; viability, T/C [19]: 105%; viability, T/C [20]: 86.3%; viability, T/C [21]: 65.3%; viability, T/C [22]: 20.9%; viability, T/C [23]: 1.39%; viability, T/C [24]: 1.01%; viability, T/C [25]: 0.29%; viability, T/C [26]: 0.26%; viability, T/C [27]: 0.23%; viability, T/C [28]: 0.11%; viability, T/C [29]: 0.77%; viability, T/C [30]: 0.09%
COc1cc(Nc2ncc3c(n2)-c2ccc(Cl)cc2C(c2c(F)cccc2OC)=NC3)ccc1C(=O)O + C=CC(=O)N1CCN(c2nc(OCC3CCCN3C)nc3c2CCN(c2cccc4cccc(C)c24)C3)CC1CC#N	< 31.6 nM	< 31.6 nM	< 31.6 nM	< 31.6 nM	< 31.6 nM	34%	32.2%	30%	34.5%	43.3%	48%	34.2%	31.7%	30.3%	31.2%	42.8%	44.2%	34.3%	28.6%	27.4%	viability, T/C [16]: 30.2%; viability, T/C [17]: 40.2%; viability, T/C [18]: 42.5%; viability, T/C [19]: 28%; viability, T/C [20]: 26.4%; viability, T/C [21]: 25.9%; viability, T/C [22]: 25.3%; viability, T/C [23]: 29.5%; viability, T/C [24]: 21.6%; viability, T/C [25]: 0.25%; viability, T/C [26]: 0.19%; viability, T/C [27]: 0.19%; viability, T/C [28]: 0.17%; viability, T/C [29]: 0.69%; viability, T/C [30]: 0.19%
O=C(c1cc(Cc2n[nH]c(=O)c3ccccc23)ccc1F)N1CCN(C(=O)C2CC2)CC1 + C=CC(=O)N1CCN(c2nc(OCC3CCCN3C)nc3c2CCN(c2cccc4cccc(C)c24)C3)CC1CC#N	1170 nM	3530 nM	8700 nM	7630 nM	< 31.6 nM	105%	107%	96.2%	53.1%	30.7%	26.6%	104%	119%	121%	114%	51.6%	34.3%	113%	111%	116%	viability, T/C [16]: 118%; viability, T/C [17]: 72.2%; viability, T/C [18]: 47%; viability, T/C [19]: 108%; viability, T/C [20]: 107%; viability, T/C [21]: 107%; viability, T/C [22]: 107%; viability, T/C [23]: 77.3%; viability, T/C [24]: 41.6%; viability, T/C [25]: 0.23%; viability, T/C [26]: 0.3%; viability, T/C [27]: 0.47%; viability, T/C [28]: 0.26%; viability, T/C [29]: 0.28%; viability, T/C [30]: 0.22%
